From US20110294728A1, “Antiviral Polypeptides” (priority 2008, published 2011)
Read-outs that look alike come from different tables or passages of the source. Where no end group is shown, it is not given here.

Tests used:
HeLa cells = experiment: Cellular uptake of FITC-labelled peptide, fluorescence microscopy; assay type: cell-based; conditions: for entry of free peptide into cells: peptide alone, without Pep-1
Procedure: HeLa cells were cultured in Dulbecco's modified Eagle's medium (DMEM) supplemented with 10% fetal calf serum at 37° C. in a humidified atmosphere containing 5% CO2.). H9 cell lines (ATCC number: HTB-176) were stably transfected with pNL4.3 V−R+plasmid (AIDS Research Reference Reagent Program, National Institutes of Health (NIH), USA) and therefore expressed in a constitutive manner all HIV-1 proteins but Env encoded proteins. They were cultured in RPMI-1640 medium supplemented with 2 mM glutamine, 10% (w/v) foetal calf serum (FCS), 1% antibiotics (streptomycin […], penicillin, 10 000 IU/ml), as well as G418 1 mg/ml. Cells were grown on glass coverslips to 75% confluency, then transfected with pcDNA3-p66RT plasmid (this plasmid contains the 66 subunit of HIV-1 Reverse Transcriptase cloned in pcDNA3.1 (+) vector (Invitrogen, USA), using HindIII and BamHI restriction site) using Lipofectamine 2000 reagent according to manufacturer' instructions (Invitrogen). Hela cells were subsequently cultured for 32 h, before incubation with FITC-PAW or FITC-PAW/Pep-1 (complex obtained at a molar ratio 1/10) for 1 h. Coverslips were extensively rinsed with PBS and cells were fixed in 4% paraformaldehyde for […] and permeabilized in 0.2% Triton. After saturation in PBS supplemented with bovine serum albumine 1% for 1 h, cells were incubated overnight with monoclonal 8C4 anti-HIV-1 RT antibody (AIDS Research Reference Reagent Program, NIH) (diluted 1:100 in PBS-BSA 1%), followed by Alexa-555 anti-mouse (Molecular Probes).
Immunofluorescence detection of HIV-1 RT and FITC-PAW was performed by epifluorescence microscopy using a PL APO 1.4 oil PH3 objective on a LEICA DMRA 1999 microscope. 3D reconstitution of the 20 frames realized from z stacking was performed using Imaris 6.0 software.
Cells were grown on acid-treated glass coverslips to 60% confluence. Once rinsed with PBS, cells were overlaid with preformed complexes and incubated for 40 minutes at 37° C. Cells were then rinsed twice with PBS and fixed […] at Room Temperature) (RT° in Paraformaldehyde 4%, and washed three times in PBS+2% BSA. They were then permeabilised by incubation 10 min RT° in PBS+0.5% Triton X-100, washed again 3 times in PBS+2% BSA. After blocking 20 min in the same solution, the coverslips were placed in a humid chamber, overlaid with 75 μl of primary antibody against Integrase, and incubated for 2 h at 37° C. Coverslips were then rinced once with PBS and incubated with 75 μl of anti rabbit antibody diluted 1/10000 in PBS. After immobilisation on the cover using Prolong Gold antifade reagent, cellular localization of Integrase as well as FITC-labelled peptides was monitored by fluorescence microscopy, using a PL APO 1.4 oil PH3 objective on a LEICA DMRA 1999 microscope. […]

heterodimeric RT = molecular target: T1, heterodimeric RT (Human immunodeficiency virus type 1 group M subtype B, UniProt P03366); experiment: Steady-state fluorescence titration of FITC-PAW with RT; design: species or system HIV-1; conditions: 200 nM FITC-PAW titrated with RT; read-out: dissociation constant (Kd), binding to heterodimeric RT
T1 construct: The heterodimeric p66/p51 RT was eluted with an imidazole gradient; p66 and p51 derived from p66 by proteolytic cleavage of the C-terminal RNAse H domain; made in house; host or cells: E. coli (M15 for the His-tagged subunits)
Procedure: (§1) Fluorescence experiments were performed in buffer containing 50 mM Tris-HCl, pH 8.0, 50 mM KCl, 10 mM MgCl2 and 1 mM DTT, at 25° C., using a SPEX-PTI spectrofluorimeter in a 1 cm path-length quartz cuvette, with a band-pass of 2 nm for excitation and emission, respectively. Excitation was performed at 492 nm and emission spectra were recorded from 500 to 600 nm. According fluorescence experiments, a fixed concentration of FAM-labelled (19/36) p/t (50 nM) or of FITC-PAW (200 nM) was titrated with increasing protein concentrations from 5 nM to 1 μM. Data were fitted as described in Agopian et al. (2007) and Rittinger et al. (1995), using a quadratic equation (GraFit, Erithacus Software).

HIV-1 RT [1] = molecular target: T2, HIV-1 RT (Human immunodeficiency virus type 1 group M subtype B, UniProt P03366); experiment: biochemical
T2 construct: The heterodimeric p66/p51 RT was eluted with an imidazole gradient; p66 and p51 derived from p66 by proteolytic cleavage of the C-terminal RNAse H domain; made in house; host or cells: E. coli (M15 for the His-tagged subunits)
Procedure: RNA-dependent-DNA RT-polymerase activity was measured in a standard reaction assay using poly(rA)-(dT)15 as template/primer as described in Restle et al. (1990). Ten microliters of reverse transcriptase (RT) at 20 nM was incubated at 37° C. for 30 min with 20 μL of reaction buffer (50 mM Tris, pH 8.0, 80 mM KCl, 6 mM MgCl2, 5 mM DTT, 0.15 μM poly(rA-dT), 15 μM dTTP, 0.3 μCi 3H-dTTP). For peptide evaluation, HIV-1 RT was incubated with increasing concentrations of peptide inhibitors for […], and polymerase reaction was initiated by adding reaction buffer. Reactions were stopped by precipitation of nucleic acids with 5 ml of 20% trichloroacetic acid (TCA) solution for 2 h on ice, then filtered using a multiwell-sample collector (Millipore), and washed with 5% TCA solution. Filters were dried at 55° C. for 30 min and radionucleotide incorporation was determined by liquid scintillation spectrometry.
A series of peptides have been derived from Pep-A sequence (SEQ ID NO: 28), which is derived from HIV-1 reverse transcriptase. First, P1 peptide (SEQ ID NO: 1) was obtained by removing the N-terminal arginine of Pep-A. Then, additional peptides were generated by performing an alanine scan on P1. P1-derived peptides were evaluated using a standard polymerase RT assay. Reported data correspond to the mean of three separate experiments.

HIV-1 integrase [2] = molecular target: T3, HIV-1 integrase (Human immunodeficiency virus type 1 group M subtype B, UniProt P04585); experiment: IN 3′-processing activity, gel-electrophoresis procedure; assay type: biochemical; conditions: read-out: IC50 3′-proc
T3 construct: Integrase is a 32 kDA viral protein that is biologically active under a multimeric form
Procedure: In order to verify the influence of the fluorescent probe attached to PAW on the peptide-integrase interaction, a standard gel-electrophoresis procedure (as described in Smolov et al., 2006) was carried out to examine the IN 3′-processing activity as a function of either unlabeled or fluorescein-labeled PAW concentration.

HIV-1 p51 = molecular target: T4, HIV-1 p51 (Human immunodeficiency virus type 1 group M subtype B, UniProt P03366); experiment: Size exclusion chromatography of p51 dimerization; conditions: p51 3.5 μM, FITC-labelled PAW 20 μM, 1 h
T4 construct: His; made in house; host or cells: E. coli M15
Procedure: Chromatography was performed using one (Phenomenex 53000) or two HPLC columns in series (Phenomenex 53000 followed by Phenomenex 52000; both 7.5 mm×300 mm). Samples containing 3 to 10 μM of RT or p51 were applied onto one or two HLPC columns and eluted with 200 mM potassium phosphate (pH: 7.0) at a flow rate of 0.5 ml·min^−1 (5).

RT:p/t = molecular target: T5, RT:p/t (Human immunodeficiency virus type 1 group M subtype B, UniProt P03366); experiment: Steady-state fluorescence titration, PAW binding to RT:p/t; design: species or system HIV-1
T5 construct: The heterodimeric p66/p51 RT was eluted with an imidazole gradient; p66 and p51 derived from p66 by proteolytic cleavage of the C-terminal RNAse H domain; made in house; host or cells: E. coli (M15 for the His-tagged subunits)
Procedure: as §1

HIV-1 integrase [3] = molecular target: T6, HIV-1 integrase (Human immunodeficiency virus type 1 group M subtype B, UniProt P12497); experiment: Integrase pull-down with CNBr Sepharose beads; assay type: binding; conditions: H9 or HeLa HA-IN cell lysates, western blotting
T6 construct: expressed in transfected cells; host or cells: H9 cells with pNL4.3 V-R+; HeLa cells stably expressing HA-tagged IN
Procedure: Peptides were resuspended in buffer A (1 mg/ml), sonicated 4 min, and incubated with 500 μl (gel volume) of activated CNBr-activated Sepharose 4B sepharose© beads at 4° C. overnight. After centrifugation, supernatants were removed and the beads were incubated with Glycine pH.8 for 2 hours at 4° C. with gentle stirring. The sedimented Sepharose beads were then washed in 0.1 M Sodium Acetate buffer (pH 4), 0.5 M Bicarbonate buffer, and finally in PBS, three times each. The peptides bound to the beads were then saturated for 30 minutes in PBS BSA 0.1% and then incubated for 1 h at 4° C. with equal amounts of cell lysate (H9 or Hela-IN) prealably lysed for 30 min on ice in Lysis buffer (Tris 20 mM, pH 7.2, NaCl 400 mM, EDTA 1 mM, DTT 1 mM, Protease inhibitors EDTA free (Roche Diagnostics) and sonicated twice for 5 sec. at 20%. Beads were washed once in Lysis buffer, and twice in PBS. They were finally resuspended in Laemli blue, migrated on 15% SDS-PAGE gels and analysed by Western Blotting.

HIV-1 RT [4] = molecular target: T7, HIV-1 RT (Human immunodeficiency virus type 1 group M subtype B, UniProt P12497); experiment: RT pull-down with peptide-CNBr Sepharose beads, H9 cell lysates; assay type: binding; conditions: Western blotting
T7 construct: asymmetric heterodimer that consists of two subunits, p66 and p51; expressed in transfected cells; host or cells: H9 cells (ATCC HTB-176) stably transfected with pNL4.3 V-R+
Procedure: For RT pull down experiments, PAW (SEQ ID NO: 18) was incubated with 500 μl of activated CNBr-activated Sepharose 4B beads at 4° C. overnight. After centrifugation, supernatants were removed and the beads were incubated with Glycine pH.8.0 for 2 hrs at 4° C. with gentle stirring. The beads were then washed with 0.1 M sodium acetate buffer (pH 4.0), then 0.5 M Bicarbonate buffer, and finally in PBS, three times each. The peptide bound to the beads were then saturated for 30 min in PBS/BSA 0.1% and then incubated for 1 h at 4° C. with equal amounts of H9 cells lysed for […] on ice in Lysis buffer (Tris 20 mM, pH 7.2, NaCl 400 mM, EDTA 1 mM, DTT 1 mM, Protease inhibitors EDTA free) and sonicated 2×5 sec. at 20%. Beads were washed with Lysis buffer then twice with PBS and the bound proteins were finally separated on 15% SDS-PAGE gel and analyzed by Western Blotting using monoclonal 8C4 anti-HIV-1 RT antibody.

[5] = system: uninfected PHA-P-activated PBMC; experiment: Cytotoxicity, MTT assay in uninfected PBMC; assay type: cell-based
Procedure: The anti-HIV activities of the peptides were assayed according to the methods described in Roisin et al. (2004). Phytohemagglutinin-P(PHA-P)-activated peripheral blood mononuclear cells (PBMC) treated by increasing concentrations of peptide (from 100 to 0.1 nM), one hour later, were infected with hundred 50% tissue culture infectious doses (TCID50) per 100,000 cells of the HIV-1-LAI strain (Barre-Sinoussi et al., 1983). This virus was amplified in vitro on PHA-P-activated PBMC. Viral stock was titrated using PHA-P-activated PBMC, and 50% TCID50 were calculated using Kärber's formula (Kärber, 1931). Samples were maintained throughout the culture, and cell supernatants were collected at day 7 post-infection and stored at −20° C. Viral replication was measured by quantifying reverse transcriptase (RT) activity in cell culture supernatants. In parallel, cytotoxicity of the compounds was evaluated in uninfected PHA-P-activated PBMC by colorimetric 3-(4-5 dimethylthiazol-2-yl)2,5diphenyl tetrazolium bromite (MTT) assay on day 7 (as described in Mossmann, 1983). Experiments were performed in triplicate and repeated with another blood donor. […]

HIV-1 RT [6] = molecular target: T2, HIV-1 RT; experiment: RT dissociation kinetics with bis-ANS, stopped flow; conditions: read-out: dissociation rate constant kdis of RT
Procedure: Dissociation kinetics of HIV-1 RT were monitored by using 4,4′-Bis(1-anilinonaphthalene 8-sulfonate (bis-ANS) as extrinsic probe. Changes in bis-ANS fluorescence provide a good signal to probe variation in the exposure of the hydrophobic regions associated to RT dissociation in a time-dependent manner. 0.5 μM of RT was dissociated in presence of 0.8 μM of bis-ANS, by adding 10% acetonitrile in the absence or in the presence of 10 μM PAW. Kinetics of dissociation were monitored by following fluorescence resonance energy transfer between tryptophan residues of RT and bis-ANS. Excitation of RT-Trp residues was performed at 290 nm and the increase of bis-ANS fluorescence emission at 490 nm was detected through a 420 nm cut-off filter. Data acquisition and analysis were performed using KinetAsyst 3 software (Hi-Tech Scientific, Salisbury, England-UK) and traces were fitted according to a single exponential equation.

Substance: GTKWLTEWIPLTAEAEC-FITC [PAW-FITC]
- time to enter cells (HeLa cells; complexed with Pep-1 at 1/10 molar ratio): less than 1 h
- entry of free peptide into cells (HeLa cells): poorly enters
- Kd (heterodimeric RT): 33 ± 10 nM
- Ki (HIV-1 RT [1]; Dixon plot, mean of three separate experiments, read-out: Ki (μM), inhibition of polymerase activity of HIV-1 RT): 2.7 ± 0.7 µM
- reduction of efficiency (higher Ki) relative to PAW (HIV-1 RT [1]; relative to PAW): 3.8 fold
- IC50 (HIV-1 integrase [2]): 10000 nM
- p51 dimeric and associated to PAW (HIV-1 p51): 4.6%
- lower Kd of labelled FITC-PAW over unlabelled peptide (RT:p/t): 5.6 fold
- Kd (RT:p/t; FITC-PAW fluorescence quenching, read-out: Kd, FITC-PAW binding to RT first incubated with DNA/DNA p/t): 7.1 ± 2.8 nM
- increase of affinity for RT in the presence of p/t (RT:p/t; relative to RT without p/t): 5 fold

Substance: Pep-7: decapeptide (SEQ ID NO: 32) mimicking p66/p51 interface that prevents reverse transcriptase-dimerization (KETWETWWTE; Pep-7 ; described in Morris et al., 1999, JBC, 274, 24941-24946)
- interaction with IN in pull-down (HIV-1 integrase [3]): does not bind IN

Substance: GTKALTAVIPLTEEAE [Peptide P8]
- entry of free peptide into cells (HeLa cells): not able to enter cells alone
- Ki (HIV-1 RT [1]): 57 ± 19 µM
- reduction of efficiency of the peptide in comparison to P1 (HIV-1 RT [1]; relative to P1): 8 fold
- stable complex with RT, retention of RT on beads (HIV-1 RT [4]): no RT was associated

Substance: GTKWLTEWIPLTAEAE-NH2 [PAW]
- entry of free peptide into cells (HeLa cells): not able to enter cells alone
- toxic effect [5]: without any toxic effect
- koff (HIV-1 RT [6]): 1.42 ± 0.007 s⁻¹
